Reference: patent publication US11382921B2, “Use of compounds in preparation of a medicament for treatment of hemorrhagic stroke” (priority 2017, dated 2022)

How the values were obtained:
[1] = system: C57B mouse model of cerebral hemorrhage; test: Neurobehavioral scoring (circle test, adhesive paper test, modified Garcia score) in collagenase-induced intracerebral hemorrhage model; assay type: in vivo; conditions: C57B mice, 60 mg/kg i.p. 1 h after modeling
Protocol: FIG. 2. […] A. Circle test; Adhesive paper test; B. Time duration for contacting adhesive paper; C. Time consumption to tear off adhesive paper; *p<0.05, ***p<0.001, n=12˜23 animals/group. con: normal; sham: sham-operated group; ICH: cerebral hemorrhage model; vehicle: solvent.
FIG. 3. […] Modified Garcia score (A-D) is used to evaluate somatosensory and motor function at 24 hours after cerebral hemorrhage in C57B mice: A. Nose hair contact test; B. Limb symmetry test; C. Forelimb walking test, D. Overall nerve function Score; n=12˜23 animals/group, *p<0.05, **p<0.01, ***p<0.001. con: normal; sham: sham-operated group; ICH: cerebral hemorrhage model; vehicle: solvent.
(§1) 112 clean grade health C57 male mice (8˜10 week, 20-22 g) were purchased from Beijing Vital River Laboratory Animal Technology Co. Ltd. Feeding conditions: 22° C.˜26° C., humidity 50%˜60%. The mice were grouped, fed with standard feed and purified water, and subjected to adaptive feeding for 1 week.
(§2) Establishment of Intracerebral hemorrhage model: After weighing body weight of mice, anesthesia was induced by 5% enflurane, and maintained by 2% enflurane mixed with 70% N2O and 30% O2. Mice were fixed on a stereotactic apparatus in the prone position and disinfected topically. The skin of the animals was incised to expose the skull for drilling. 0.3 μl of 0.35UVII collagenase was slowly injected with a micro sampler. The needle was kept for 5 min then slowly pulled out for 5 min, and the skull drilling was covered by bone glue. Animals were sutured, and subjected to routine disinfection. In the sham operation group, the needle was inserted in the same way, but without injection. The solvent or Triol was administered by intraperitoneal injection at 60 mg/kg 1 h after modeling.
C57 mice were divided into 5 groups using random number method, namely normal control group (n=12), sham operation group (n=12), cerebral hemorrhage group (n=26), cerebral hemorrhage+solvent intraperitoneal injection 1 h after modeling group (n=26), and cerebral hemorrhage+Triol intraperitoneal injection 1 h after modeling group (n=26).
The neurological function was measured 24 hours after the cerebral hemorrhage model was established.

[2] = system: C57B mouse model of cerebral hemorrhage; test: Determination of intracerebral hemorrhage (hemorrhage area, brain hemoglobin content) in collagenase-induced intracerebral hemorrhage model; assay type: in vivo; conditions: C57B mice
Protocol: as §1
as §2, with “modeling. […]” for “modeling.”
chloral hydrated peritoneal was injected intraperitoneally for anesthesia at 24 hours after modeling. […] The hemoglobin content in the brain was measured with a hemoglobin detection kit.

In the case of C[C@@]12CCCC1C1C[C@@H](O)[C@@]3(O)C[C@@H](O)CC[C@]3(C)C1CC2 (stereo partly drawn) [Triol, 5α-androst-3β,5,6β-triol], the “adhesive paper test: time consumption to remove adhesive paper” value ([1]; 24 h, p<0.001 (FIG. 2C)) is reported as “significantly reduced”, the “modified Garcia score: beard touch avoidance (nose hair contact test)” value ([1]; 24 h, p<0.001 (FIG. 3A)) is reported as “significantly restored” and the “neurological function scores (overall, modified Garcia)” value ([1]; 24 h, p<0.001 (FIG. 3D)) is reported as “significantly improved”. The “modified Garcia score: symmetry of the limbs' movement” value ([1]; 24 h, p<0.01 (FIG. 3B)) was “significantly improved”, the “adhesive paper test: time duration for contacting adhesive paper” value ([1]; 24 h, p<0.05 (FIG. 2B)) was “significantly reduced” and the “modified Garcia score: forelimb walking” value ([1]; 24 h, p<0.05 (FIG. 3C)) was “significantly improved”. The “circle test: time taken to go out of the center of the circle to any point of the circle edge” value ([1]; 24 h after cerebral hemorrhage (FIG. 2A)) was “has a tendency to decrease”, the “hemoglobin content of the hemorrhagic hemisphere (amount of hemorrhage)” value ([2]; 60 mg/kg i.p. 1 h after modeling, 24 h, vs cerebral hemorrhage model group, p<0.01 (FIG. 1B)) was “decreased significantly” and the “hemorrhage area (volume) of the hemisphere brain with collagenase injection” value ([2]; Triol 60 mg/kg intraperitoneal 1 h after modeling, 24 h later (FIG. 1A)) was “significantly reduced”.
